Test results as given in patent publication US12077503B2, “Substituted cyclic amides and their use as herbicides” (FMC CORPORATION, priority 2015, dated 2024).

Key:
Format in all cases: in vivo
[1] = test system: barnyardgrass (Echinochloa crus-galli); assay: Test G Post-Emergence Protocol; details: Echinochloa crus-galli, post-emergence, 312 h; for pest or weed control at 15.625 g/ha: 15.625 g ai/ha, evaluated after 13 days (100=total damage to plant; 0=no damage to plant), read-out: Barnyardgrass damage rating; for pest or weed control at 62.5 g/ha: 62.5 g ai/ha, read-out: Barnyardgrass damage rating (100=total damage to plant; 0=no damage to plant); for pest or weed control at 62.5 g/ha / pest or weed control at 250 g/ha: evaluated after 13 days; for pest or weed control at 250 g/ha: 250 g ai/ha, read-out: damage to plant, Barnyardgrass (100=total damage to plant; 0=no damage to plant)
How it was run: (§1)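 Scores run 0 (no damage) to 100 (total damage) and were taken 13 days after spraying. Plants had been raised in pots for 8 days under glasshouse control (24/16 °C, 14 h photoperiod, 65% humidity) and then treated at 15.625, 62.5 or 250 g/ha.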

[2] = test system: giant foxtail (Setaria faberi); assay: Test G Post-Emergence Protocol; details: Setaria faberi, post-emergence, 312 h; for pest or weed control at 15.625 g/ha: 15.625 g ai/ha, evaluated after 13 days (100=total damage to plant; 0=no damage to plant), read-out: Foxtail, Giant damage rating; for pest or weed control at 62.5 g/ha: 62.5 g ai/ha, read-out: Foxtail, Giant damage rating (100=total damage to plant; 0=no damage to plant); for pest or weed control at 62.5 g/ha / pest or weed control at 250 g/ha: evaluated after 13 days; for pest or weed control at 250 g/ha: 250 g ai/ha, read-out: damage to plant, Foxtail, Giant (100=total damage to plant; 0=no damage to plant)
How it was run: as §1

[3] = test system: ivy-leaved morning glory (Ipomoea hederacea); assay: Test G Post-Emergence Protocol; details: Ipomoea, post-emergence, 312 h; for pest or weed control at 15.625 g/ha: 15.625 g ai/ha, evaluated after 13 days (100=total damage to plant; 0=no damage to plant), read-out: Morningglory, Ivy-leaved damage rating; for pest or weed control at 62.5 g/ha: 62.5 g ai/ha, read-out: Morningglory, Ivy-leaved damage rating (100=total damage to plant; 0=no damage to plant); for pest or weed control at 62.5 g/ha / pest or weed control at 250 g/ha: evaluated after 13 days; for pest or weed control at 250 g/ha: 250 g ai/ha, read-out: damage to plant, Morningglory, Ivy-leaved (100=total damage to plant; 0=no damage to plant)
How it was run: as §1

[4] = test system: corn (Zea mays); assay: Test G Post-Emergence Protocol; details: Zea mays, post-emergence, 312 h; for plant injury at 15.625 g/ha: 15.625 g ai/ha, evaluated after 13 days (100=total damage to plant; 0=no damage to plant), read-out: Corn damage rating; for plant injury at 62.5 g/ha: 62.5 g ai/ha, read-out: Corn damage rating (100=total damage to plant; 0=no damage to plant); for plant injury at 62.5 g/ha / plant injury at 250 g/ha: evaluated after 13 days; for plant injury at 250 g/ha: 250 g ai/ha, read-out: damage to plant, Corn (100=total damage to plant; 0=no damage to plant)
How it was run: as §1

[5] = test system: velvetleaf (Abutilon theophrasti); assay: Test G Post-Emergence Protocol; details: Abutilon theophrasti, post-emergence, 312 h; for pest or weed control at 15.625 g/ha: 15.625 g ai/ha, evaluated after 13 days (100=total damage to plant; 0=no damage to plant), read-out: Velvetleaf damage rating; for pest or weed control at 62.5 g/ha: 62.5 g ai/ha, read-out: Velvetleaf damage rating (100=total damage to plant; 0=no damage to plant); for pest or weed control at 62.5 g/ha / pest or weed control at 250 g/ha: evaluated after 13 days; for pest or weed control at 250 g/ha: 250 g ai/ha, read-out: damage to plant, Velvetleaf (100=total damage to plant; 0=no damage to plant)
How it was run: as §1

[6] = test system: redroot pigweed (Amaranthus retroflexus); assay: Test G Post-Emergence Protocol; details: Amaranthus retroflexus, post-emergence, 312 h; for pest or weed control at 15.625 g/ha: 15.625 g ai/ha, evaluated after 13 days (100=total damage to plant; 0=no damage to plant), read-out: Pigweed, Redroot damage rating; for pest or weed control at 62.5 g/ha: 62.5 g ai/ha, read-out: Pigweed, Redroot damage rating (100=total damage to plant; 0=no damage to plant); for pest or weed control at 62.5 g/ha / pest or weed control at 250 g/ha: evaluated after 13 days; for pest or weed control at 250 g/ha: 250 g ai/ha, read-out: damage to plant, Pigweed, Redroot (100=total damage to plant; 0=no damage to plant)
How it was run: as §1

[7] = test system: barnyardgrass (Echinochloa crus-galli); assay: Test G Pre-Emergence Protocol; details: Echinochloa crus-galli, pre-emergence, 312 h, evaluated after 13 days; for pest or weed control at 15.625 g/ha: 15.625 g ai/ha, read-out: Barnyard grass damage rating (100=total damage to plant; 0=no damage to plant); for pest or weed control at 62.5 g/ha: 62.5 g ai/ha, 100=total damage to plant, 0=no damage to plant, read-out: plant damage rating, Barnyardgrass; for pest or weed control at 250 g/ha: 250 g ai/ha, read-out: Barnyardgrass damage rating (100=total damage to plant; 0=no damage to plant)
How it was run: (§2)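 Glasshouse pre-emergence test: soil-sown seeds, sprayed after 1 d at 15.625, 62.5 or 250 g/ha. Conditions 24/16° C day/night, 14 h light, 65% humidity, watering twice daily. Rating 13 d post-spray (100 = total damage).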

[8] = test system: giant foxtail (Setaria faberi); assay: Test G Pre-Emergence Protocol; details: Setaria faberi, pre-emergence, 312 h, evaluated after 13 days; for pest or weed control at 15.625 g/ha: 15.625 g ai/ha; for pest or weed control at 15.625 g/ha / pest or weed control at 250 g/ha: read-out: Foxtail, Giant damage rating (100=total damage to plant; 0=no damage to plant); for pest or weed control at 62.5 g/ha: 62.5 g ai/ha, 100=total damage to plant, 0=no damage to plant, read-out: plant damage rating, Foxtail, Giant; for pest or weed control at 250 g/ha: 250 g ai/ha
How it was run: as §2

[9] = test system: ivy-leaved morning glory (Ipomoea hederacea); assay: Test G Pre-Emergence Protocol; details: Ipomoea, pre-emergence, 312 h, evaluated after 13 days; for pest or weed control at 15.625 g/ha: 15.625 g ai/ha, read-out: Morning-glory, Ivy-leaved damage rating (100=total damage to plant; 0=no damage to plant); for pest or weed control at 62.5 g/ha: 62.5 g ai/ha, 100=total damage to plant, 0=no damage to plant, read-out: plant damage rating, Morningglory, Ivy-leaved; for pest or weed control at 250 g/ha: 250 g ai/ha, read-out: Morningglory, Ivy-leaved damage rating (100=total damage to plant; 0=no damage to plant)
How it was run: as §2

[10] = test system: corn (Zea mays); assay: Test G Pre-Emergence Protocol; details: Zea mays, pre-emergence, 312 h, evaluated after 13 days; for plant injury at 15.625 g/ha: 15.625 g ai/ha; for plant injury at 15.625 g/ha / plant injury at 250 g/ha: read-out: Corn damage rating (100=total damage to plant; 0=no damage to plant); for plant injury at 62.5 g/ha: 62.5 g ai/ha, 100=total damage to plant, 0=no damage to plant, read-out: plant damage rating, Corn; for plant injury at 250 g/ha: 250 g ai/ha
How it was run: as §2

[11] = test system: velvetleaf (Abutilon theophrasti); assay: Test G Pre-Emergence Protocol; details: Abutilon theophrasti, pre-emergence, 312 h, evaluated after 13 days; for pest or weed control at 15.625 g/ha: 15.625 g ai/ha; for pest or weed control at 15.625 g/ha / pest or weed control at 250 g/ha: read-out: Velvetleaf damage rating (100=total damage to plant; 0=no damage to plant); for pest or weed control at 62.5 g/ha: 62.5 g ai/ha, 100=total damage to plant, 0=no damage to plant, read-out: plant damage rating, Velvetleaf; for pest or weed control at 250 g/ha: 250 g ai/ha
How it was run: as §2

[12] = test system: redroot pigweed (Amaranthus retroflexus); assay: Test G Pre-Emergence Protocol; details: Amaranthus retroflexus, pre-emergence, 312 h, evaluated after 13 days; for pest or weed control at 15.625 g/ha: 15.625 g ai/ha; for pest or weed control at 15.625 g/ha / pest or weed control at 250 g/ha: read-out: Pigweed, Redroot damage rating (100=total damage to plant; 0=no damage to plant); for pest or weed control at 62.5 g/ha: 62.5 g ai/ha, 100=total damage to plant, 0=no damage to plant, read-out: plant damage rating, Pigweed, Redroot; for pest or weed control at 250 g/ha: 250 g ai/ha
How it was run: as §2

Compound CN1C[C@H](c2ccc(C(F)(F)F)cc2)[C@@H](C(=O)Nc2ncc(F)cc2F)C1=O (racemic) [Compound 1452] has a pest or weed control at 15.625 g/ha [1] of 0%, a pest or weed control at 62.5 g/ha [1] of 0% and a pest or weed control at 250 g/ha [1] of 0%. It also gave a pest or weed control at 15.625 g/ha [2] of 0%, a pest or weed control at 62.5 g/ha [2] of 0% and a pest or weed control at 250 g/ha [2] of 10%. For the same compound, the pest or weed control at 15.625 g/ha [3] was 0%, the pest or weed control at 62.5 g/ha [3] was 10% and the pest or weed control at 250 g/ha [3] was 10%. For the same compound, the plant injury at 15.625 g/ha [4] was 0%, the plant injury at 62.5 g/ha [4] was 0% and the plant injury at 250 g/ha [4] was 0%. The pest or weed control at 15.625 g/ha [5] was 0%, the pest or weed control at 62.5 g/ha [5] was 0% and the pest or weed control at 250 g/ha [5] was 10%. It also gave a pest or weed control at 15.625 g/ha [6] of 0%, a pest or weed control at 62.5 g/ha [6] of 0% and a pest or weed control at 250 g/ha [6] of 10%. The pest or weed control at 15.625 g/ha [7] was 0%, the pest or weed control at 62.5 g/ha [7] was 0% and the pest or weed control at 250 g/ha [7] was 50%. For the same compound, the pest or weed control at 15.625 g/ha [8] was 0%, the pest or weed control at 62.5 g/ha [8] was 0% and the pest or weed control at 250 g/ha [8] was 60%. The pest or weed control at 15.625 g/ha [9] was 0%, the pest or weed control at 62.5 g/ha [9] was 0% and the pest or weed control at 250 g/ha [9] was 0%. It also gave a plant injury at 15.625 g/ha [10] of 0%, a plant injury at 62.5 g/ha [10] of 0% and a plant injury at 250 g/ha [10] of 0%. It also gave a pest or weed control at 15.625 g/ha [11] of 0%, a pest or weed control at 62.5 g/ha [11] of 0% and a pest or weed control at 250 g/ha [11] of 30%. The pest or weed control at 15.625 g/ha [12] was 0%, the pest or weed control at 62.5 g/ha [12] was 0% and the pest or weed control at 250 g/ha [12] was 0%.
Work on CN1C[C@H](c2ccc(C(F)(F)F)cc2)[C@@H](C(=O)NC2=NOC(C)(C)C2)C1=O (racemic) [Compound 1427] yielded a pest or weed control at 15.625 g/ha [1] of 0%, a pest or weed control at 62.5 g/ha [1] of 0% and a pest or weed control at 250 g/ha [1] of 0%. It also gave a pest or weed control at 15.625 g/ha [2] of 0%, a pest or weed control at 62.5 g/ha [2] of 0% and a pest or weed control at 250 g/ha [2] of 0%. It also gave a pest or weed control at 15.625 g/ha [3] of 0%, a pest or weed control at 62.5 g/ha [3] of 0% and a pest or weed control at 250 g/ha [3] of 0%. The plant injury at 15.625 g/ha [4] was 0%, the plant injury at 62.5 g/ha [4] was 0% and the plant injury at 250 g/ha [4] was 0%. The pest or weed control at 15.625 g/ha [5] was 0%, the pest or weed control at 62.5 g/ha [5] was 0% and the pest or weed control at 250 g/ha [5] was 0%. The pest or weed control at 15.625 g/ha [6] was 0%, the pest or weed control at 62.5 g/ha [6] was 0% and the pest or weed control at 250 g/ha [6] was 0%. It also gave a pest or weed control at 15.625 g/ha [7] of 0%, a pest or weed control at 62.5 g/ha [7] of 0% and a pest or weed control at 250 g/ha [7] of 0%. The pest or weed control at 15.625 g/ha [8] was 0%, the pest or weed control at 62.5 g/ha [8] was 0% and the pest or weed control at 250 g/ha [8] was 0%. It also gave a pest or weed control at 15.625 g/ha [9] of 0%, a pest or weed control at 62.5 g/ha [9] of 0% and a pest or weed control at 250 g/ha [9] of 0%. For the same compound, the plant injury at 15.625 g/ha [10] was 0%, the plant injury at 62.5 g/ha [10] was 0% and the plant injury at 250 g/ha [10] was 0%. The pest or weed control at 15.625 g/ha [11] was 0%, the pest or weed control at 62.5 g/ha [11] was 0% and the pest or weed control at 250 g/ha [11] was 0%. For the same compound, the pest or weed control at 15.625 g/ha [12] was 0%, the pest or weed control at 62.5 g/ha [12] was 0% and the pest or weed control at 250 g/ha [12] was 0%.
